Measurements published in patent publication US20160213729A1, “FILIPENDULA VULGARIS EXTRACT AND USES THEREOF” (ABOCA S.P.A. SOCIETA' AGRICOLA, priority 2013, published 2016).

Columns and labels:
Assay type in all cases: cell-based, human
[1] = system: untransformed normal mesothelial cells (HMC); assay: Comet assay, HMC; conditions: single agent
Protocol: (§6) After the treatment, the cells were trypsinized and immersed in 1% low-melting agarose (Sigma) in PBS and spread onto microscope slides coated beforehand with 1% agarose (Bio-Rad). The cells were lysed in the lysis solution (2.5 M NaCl, 100 mM EDTA, 10 mM Tris base, 8 g/l NaOH, 1% Triton X-100, 10% DMSO) for 1 hour at room temperature and then run into the running solution (300 mM NaOH, 1 mM EDTA, pH 13.0) for 30 minutes, at 25 V and 250 mA. DNA was balanced with 0.4 M Tris, pH 8.0, and the slides dried with methanol. Propidium iodide-DNA (Sigma) and the figures images were taken by using an Axiovert 200M microscope with 40× magnification and an Axiovision (Zeiss) image acquisition software. At least 300 cells per each slide were recorded.

MSTO211H cells = assay: Comet assay, MSTO211H; conditions: single agent
Protocol: as §6

[2] = system: mesothelioma cell lines MPM NCl-H2052; assay: Cell vitality (ATPlite) in co-treatment with pemetrexed, NCl-H2052
Protocol: (§1) Cell lines MSTO211H and NCl-H2052 were used to evaluate the effects of the association of extract of Filipendula vulgaris±anti-tumour drug.
(§2) The assay shown in FIG. 10 was performed using ATPlite™ assay (Perkin Elmer) in accordance with the producer's instructions.
(§3) A solution of water for injectable solutions and ethanol at a concentration of 1:1 was used in the same volumes used for the treatments.
(§4) pemetrexed (Alimta, Lilly) diluted in accordance with the producer's instructions.
(§5) The concentrations of the assayed compound are plotted on the abscissa, whereas the cell vitality expressed in percentage is plotted on the ordinate.

[3] = system: mesothelioma cell lines MPM MSTO211H; assay: Cell vitality (ATPlite) in co-treatment with pemetrexed, MSTO211H
Protocol: as §1, §2, §3, §4, §5

mesothelial cells (HMC) = assay: Cell vitality (ATPlite) in co-treatment with pemetrexed, HMC; conditions: pemetrexed alone
Protocol: as §2, §3, §4, §5

| Compound | DNA damage / fragmentation [1] | DNA damage / fragmentation (MSTO211H cells) | concentration of pemetrexed sufficient to lower the cell vitality in double treatment ([2]; NCl-H2052, double treatment with extract 6 μg/ml) | cell vitality, single agent ([2]; NCl-H2052, pemetrexed alone) | concentration of pemetrexed sufficient to lower the cell vitality in double treatment ([3]; double treatment with extract 6 μg/ml) | cell vitality, single agent ([3]; pemetrexed alone) | toxicity for non-tumour cells, single agent (mesothelial cells (HMC)) |
| --- | --- | --- | --- | --- | --- | --- | --- |
| N.N.[Cl][Pt][Cl] [CDDP, cis-diamminedichloroplatinum] | induces DNA fragmentation | induces DNA fragmentation |  |  |  |  |  |
| Nc1nc2[nH]cc(CCc3ccc(C(=O)N[C@@H](CCC(=O)O)C(=O)O)cc3)c2c(=O)[nH]1 [PMTX, pemetrexed] |  |  | 10 µM | cytotoxic for the MPM cells | 10 µM | cytotoxic for the MPM cells | highly toxic for the non-tumour cells |
